Results published in patent publication US9510598B2, “Nitrogen-containing heterocyclic compounds for plant disease control” (BAYER CROPSCIENCE AG, priority 2012, dated 2016).
Read-outs that look alike come from different tables or passages of the source.

How the values were obtained:
Septoria tritici = assay: In vivo preventive test on Septoria tritici (leaf spot on wheat); conditions: 500 ppm; wheat plants sprayed 24 hours before contamination; grading 21 to 28 days after contamination vs control plants
In short: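 Scipion wheat at 1-leaf stage sprayed with compound, controls receiving acetone/tween/DMSO/water vehicle; 24 h later leaves inoculated with Septoria tritici spores (500 000 spores per ml). Efficacy (%) graded versus control plants 21 to 28 days after contamination.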

[1] = type: physicochemical
Phytophthora infestans = type: in vivo; conditions: 500 ppm; tomato plants sprayed 24 hours before contamination; grading 5 days after contamination vs control plants
Sphaerotheca fuliginea = assay: In vivo preventive test on Sphaerotheca fuliginea (powdery mildew on cucurbits); conditions: 500 ppm; gherkin plants sprayed 24 hours before contamination; grading 12 days after contamination vs control plants
In short: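 Preventive spray of gherkin plants at Z11 cotyledon stage, grown at 24° C; inoculation 24 hours later with Sphaerotheca fuliginea spores (100 000 spores per ml). Efficacy graded 12 days post-inoculation as % versus solvent-treated control plants.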

Botrytis cinerea = assay: In vivo preventive test on Botrytis cinerea (grey mould); conditions: 500 ppm; gherkin plants sprayed 24 hours before contamination; grading 4-5 days after contamination vs control plants
In short: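 Gherkin plants ("Vert petit de Paris") sprayed with compound at Z11 cotyledon stage, then inoculated 24 h later with B. cinerea spores (50 000/ml) in PDB/fructose/NH4NO3/KH2PO4 nutrient solution. Incubated at 17 °C, 80% RH; % efficacy versus solvent-treated controls graded 4–5 days after contamination.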

[2] = Table 3, formula (V); method [a]: pH 2.7, 0.1% formic acid in water / acetonitrile gradient
Protocol: Measurement of log P values was performed according EEC directive 79/831 Annex V.A8 by HPLC (High Performance Liquid Chromatography) on reversed phase columns with the following methods: ^[a]

[3] = method [a]: HPLC/LC-MS on reversed phase at pH 2.7, 0.1% formic acid in water / acetonitrile, gradient 10% to 95% acetonitrile
[4] = HPLC on reversed phase columns, method [a]: pH 2.7, 0.1% formic acid in water / acetonitrile, linear gradient 10% to 95% acetonitrile
[5] = method [a]: HPLC/LC-MS on reversed phase at pH 2.7, 0.1% formic acid in water / acetonitrile, linear gradient 10% to 95% acetonitrile
[6] = HPLC on reversed phase columns, method [a]: pH 2.7, 0.1% formic acid in water and acetonitrile, linear gradient 10% to 95% acetonitrile

C#Cc1cnc2ccc(C3=NOC(C)(C(=O)NC(C)COC)C3)cc2c1 (racemic) [compound 365]
% of efficacy (protection) (Septoria tritici): 100%
log P [1, 3]: 2.26[a]
% of efficacy (protection) (Phytophthora infestans): 79%
% of efficacy (protection) (Sphaerotheca fuliginea): 98%

CC#Cc1cnc2ccc(C3=NOC(C)(C(=O)NC(C)C)C3)cc2c1 (racemic) [compound 381]
% of efficacy (protection) (Septoria tritici): 97%
log P [1, 3]: 2.73[a]
% of efficacy (protection) (Phytophthora infestans): 95%
% of efficacy (protection) (Sphaerotheca fuliginea): 94%

CCn1cc(CNC(=O)C2(OC)CC(c3ccc4ncc(I)cc4c3)=NO2)c(C)n1 (racemic) [compound 437]
log P [1, 3]: 2.44[a]
% of efficacy (protection) (Phytophthora infestans): 70%
% of efficacy (protection) (Sphaerotheca fuliginea): 100%

C#Cc1cnc2ccc(C3=NOC(CC)(C(=O)NCc4cn(CCC)nc4C)C3)cc2c1 (racemic) [compound 445]
% of efficacy (protection) (Septoria tritici): 94%
log P [1, 3]: 2.64[a]
% of efficacy (protection) (Phytophthora infestans): 100%
% of efficacy (protection) (Botrytis cinerea): 93%
% of efficacy (protection) (Sphaerotheca fuliginea): 94%

CCCn1cc(CNC(=O)C2(OC)CC(c3ccc4ncc(I)cc4c3)=NO2)c(C)n1 (racemic) [compound 449]
% of efficacy (protection) (Septoria tritici): 98%
log P [1, 3]: 2.73[a]
% of efficacy (protection) (Phytophthora infestans): 100%
% of efficacy (protection) (Botrytis cinerea): 99%
% of efficacy (protection) (Sphaerotheca fuliginea): 100%

CCCn1cc(CNC(=O)C2(C)CC(c3cc(Cl)c4ncc(Br)cc4c3)=NO2)c(C)n1 (racemic) [compound 549]
% of efficacy (protection) (Septoria tritici): 97%
log P [1, 4]: 3.06[a]
% of efficacy (protection) (Phytophthora infestans): 96%
% of efficacy (protection) (Botrytis cinerea): 83%

ON=C(Cl)c1ccc2ncc(Br)cc2c1 [V-10]
Log P [2]: 2.52[a]

ON=Cc1ccc2ncc(Cl)cc2c1 [V-11]
Log P [2]: 1.78[a]

ON=Cc1ccc2ncc(I)cc2c1 [V-13]
Log P [2]: 2.08[a]

ON=C(Cl)c1ccc2ncc(I)cc2c1 [V-14]
Log P [2]: 2.77[a]

C#Cc1cnc2c(C)cc(C=NO)cc2c1 [V-15]
Log P [2]: 2.21[a]

Cc1cc(C=NO)cc2cc(Br)cnc12 [V-16]
Log P [2]: 2.61[a]

ON=Cc1cc(Cl)c2ncc(Br)cc2c1 [V-17]
Log P [2]: 2.40[a]

ON=C(Cl)c1cc(Cl)c2ncc(Br)cc2c1 [V-18]
Log P [2]: 3.10[a]

Cc1cc(C(Cl)=NO)cc2cc(Br)cnc12 [V-19]
Log P [2]: 3.37[a]

ON=Cc1ccc2ncc(Br)c(Cl)c2c1 [V-21]
Log P [2]: 2.43[a]

ON=C(Cl)c1ccc2ncc(Br)c(Cl)c2c1 [V-22]
Log P [2]: 3.16[a]

ON=Cc1cc(F)c2ncc(Br)cc2c1 [V-23]
Log P [2]: 2.08[a]

C#Cc1cnc2ccc(C3=NOC(C)(C(=O)NC(C)C)C3)cc2c1 (stereo not shown) [compound 40]
% of efficacy (protection) (Septoria tritici): 100%
log P [1, 5]: 2.28^[a]
% of efficacy (protection) (Phytophthora infestans): 97%
% of efficacy (protection) (Botrytis cinerea): 100%
% of efficacy (protection) (Sphaerotheca fuliginea): 100%

C#Cc1cnc2ccc(C3=NOC(C)(C(=O)NCc4c(C)nn(CC)c4C)C3)cc2c1 (stereo not shown) [compound 87]
log P [1, 5]: 2.08^[a]
% of efficacy (protection) (Phytophthora infestans): 100%
% of efficacy (protection) (Botrytis cinerea): 97%
% of efficacy (protection) (Sphaerotheca fuliginea): 89%

CCn1nc(C)c(CNC(=O)C2(C)CC(c3ccc4ncc(Br)cc4c3)=NO2)c1C (stereo not shown) [compound 88]
log P [1, 5]: 2.32^[a]
% of efficacy (protection) (Phytophthora infestans): 100%

C#Cc1cnc2ccc(C3=NOC(C)(C(=O)NCc4cnn(CC)c4)C3)cc2c1 (stereo not shown) [compound 181]
log P [1, 5]: 2.04^[a]
% of efficacy (protection) (Phytophthora infestans): 92%
% of efficacy (protection) (Botrytis cinerea): 92%
% of efficacy (protection) (Sphaerotheca fuliginea): 98%

CCn1cc(CNC(=O)C2(C)CC(c3ccc4ncc(Br)cc4c3)=NO2)cn1 (stereo not shown) [compound 182]
log P [1, 5]: 2.27^[a]
% of efficacy (protection) (Phytophthora infestans): 83%
% of efficacy (protection) (Botrytis cinerea): 99%
% of efficacy (protection) (Sphaerotheca fuliginea): 98%

C#Cc1cnc2ccc(C3=NOC(C)(C(=O)NCc4c(C)nn(C)c4C)C3)cc2c1 (stereo not shown) [compound 183]
% of efficacy (protection) (Septoria tritici): 86%
log P [1, 5]: 1.91^[a]
% of efficacy (protection) (Phytophthora infestans): 86%

C#Cc1cnc2ccc(C3=NOC(C)(C(=O)NCc4ccnc(N5CCOCC5)c4)C3)cc2c1 (stereo not shown) [compound 194]
log P [1, 5]: 1.36^[a]
% of efficacy (protection) (Phytophthora infestans): 94%

C#Cc1cnc2ccc(C3=NOC(C)(C(=O)NCc4c(C)nn(C(C)C)c4C)C3)cc2c1 (stereo not shown) [compound 196]
log P [1, 5]: 2.32^[a]
% of efficacy (protection) (Phytophthora infestans): 94%

CC(C)n1cc(CNC(=O)C2(C)CC(c3ccc4ncc(Br)cc4c3)=NO2)cn1 (stereo not shown) [compound 199]
log P [1, 5]: 2.5^[a]
% of efficacy (protection) (Phytophthora infestans): 92%
% of efficacy (protection) (Botrytis cinerea): 99%
% of efficacy (protection) (Sphaerotheca fuliginea): 98%

CC1(C(=O)NCc2cnn(Cc3ccccc3)c2)CC(c2ccc3ncc(Br)cc3c2)=NO1 (stereo not shown) [compound 201]
% of efficacy (protection) (Septoria tritici): 86%
log P [1, 5]: 2.94^[a]
% of efficacy (protection) (Phytophthora infestans): 92%

CON=CC(C)(C)NC(=O)C1(C)CC(c2ccc3ncc(Br)cc3c2)=NO1 (stereo not shown) [compound 298]
% of efficacy (protection) (Septoria tritici): 100%
log P [1, 4]: 3.29[a]
% of efficacy (protection) (Phytophthora infestans): 100%
% of efficacy (protection) (Botrytis cinerea): 87%

CCn1cc(C(C)NC(=O)C2(C)CC(c3ccc4ncc(Br)cc4c3)=NO2)c(C)n1 (stereo not shown) [compound 312]
% of efficacy (protection) (Septoria tritici): 100%
log P [1, 4]: 2.52[a]
% of efficacy (protection) (Phytophthora infestans): 100%
% of efficacy (protection) (Sphaerotheca fuliginea): 94%

C#Cc1cnc2ccc(C3=NOC(C)(C(=O)NC(C)C4=NOCC4)C3)cc2c1 (stereo not shown) [compound 338]
% of efficacy (protection) (Septoria tritici): 100%
log P [1, 4]: 2.08[a]
% of efficacy (protection) (Phytophthora infestans): 92%
% of efficacy (protection) (Sphaerotheca fuliginea): 100%

C#Cc1cnc2ccc(C3=NOC(C)(C(=O)NC(C)c4cn(CC)nc4C)C3)cc2c1 (stereo not shown) [compound 351]
% of efficacy (protection) (Septoria tritici): 100%
log P [1, 4]: 2.28[a]
% of efficacy (protection) (Phytophthora infestans): 100%
% of efficacy (protection) (Sphaerotheca fuliginea): 98%

CCCn1cc(CNC(=O)C2(C)CC(c3ccc4ncc(I)cc4c3)=NO2)c(C)n1 (stereo not shown) [compound 455]
log P [1, 3]: 2.75[a]
% of efficacy (protection) (Phytophthora infestans): 100%
% of efficacy (protection) (Botrytis cinerea): 98%
% of efficacy (protection) (Sphaerotheca fuliginea): 98%

C#Cc1cnc2ccc(C3=NOC(C)(C(=O)NCc4cn(C(C)C)nc4C)C3)cc2c1 (stereo not shown) [compound 461]
log P [1, 3]: 2.34[a]
% of efficacy (protection) (Phytophthora infestans): 100%
% of efficacy (protection) (Botrytis cinerea): 99%
% of efficacy (protection) (Sphaerotheca fuliginea): 98%

C#Cc1cnc2ccc(C3=NOC(C)(C(=O)NC(C)(C)c4nc(C)cs4)C3)cc2c1 (stereo not shown) [compound 516]
log P [1, 4]: 2.92[a]
% of efficacy (protection) (Phytophthora infestans): 73%
% of efficacy (protection) (Botrytis cinerea): 100%

C#Cc1cnc2c(Cl)cc(C3=NOC(C)(C(=O)NCc4cn(CCC)nc4C)C3)cc2c1 (stereo not shown) [compound 551]
% of efficacy (protection) (Septoria tritici): 93%
log P [1, 4]: 2.78[a]
% of efficacy (protection) (Phytophthora infestans): 81%
% of efficacy (protection) (Botrytis cinerea): 98%

C=CC1(C(=O)NCc2cn(CC)nc2C)CC(c2ccc3ncc(I)cc3c2)=NO1 (stereo not shown) [compound 728]
log P [1, 6]: 2.75[a]
% of efficacy (protection) (Phytophthora infestans): 100%
% of efficacy (protection) (Botrytis cinerea): 97%
% of efficacy (protection) (Sphaerotheca fuliginea): 100%

C=CC1(C(=O)NCCCOCC)CC(c2ccc3ncc(Br)cc3c2)=NO1 (stereo not shown) [compound 733]
% of efficacy (protection) (Septoria tritici): 92%
log P [1, 6]: 3.06[a]
% of efficacy (protection) (Phytophthora infestans): 100%
% of efficacy (protection) (Sphaerotheca fuliginea): 98%
